This is an account of results in ChEMBL document CHEMBL4145551, “Mitochondria-targeting indolizino[3,2-c]quinolines as novel class of photosensitizers for photodynamic anticancer activity” (Eur J Med Chem, 2018).

Series [1] deals with HeLa. Kind of series: Photocytotoxicity against human HeLa cells assessed as increase in cleaved PARP protein expression preincubated for 1 hr followed by blue LED light irradiation for 10 mins and measured after 18 hrs by Western blot analysis. In kind it is functional, cell-based.
A further series has as its system MCF7. The series can be described thus: Photocytotoxicity against human MCF7 cells assessed as induction of mitochondrial membrane potential depolarization at 10 uM preincubated for 1 hr followed by blue LED light irradiation for 5 mins by TMRE staining based confocal microscopic method. It counts as functional, cell-based.
The subject of series [2] is DNA. The series can be described thus: Binding affinity to Escherichia coli pBR322 DNA assessed as increase in test compound fluorescence after 30 mins under blue LED light irradiation. In kind it is nucleic-acid assay.
The nature of series [3]: Drug uptake in human HeLa cell mitochondria at 10 uM incubated for 1 to 2 hrs under 488 nanometer laser light irradiation by confocal microscopic method. It counts as ADME.
Series [4] deals with HeLa. The series can be described thus: Photocytotoxicity against human HeLa cells assessed as cell rounding at 20 uM preincubated for 1 hr followed by blue LED light irradiation for 10 mins and measured after 2.5 hrs by holotomographic method. It counts as functional, cell-based.
Series [5] deals with HeLa. Kind of series: Photocytotoxicity against human HeLa cells assessed as induction of mitochondrial membrane potential depolarization at 10 uM preincubated for 1 hr followed by blue LED light irradiation for 5 mins by TMRE staining based confocal microscopic method. In kind it is functional, cell-based.
The test system of series [6] is DNA. The series can be described thus: Binding affinity to Escherichia coli pBR322 DNA assessed as increase in test compound fluorescence up to 10 uM after 30 mins under blue LED light irradiation relative to control. It counts as nucleic-acid assay.
For series [7], the system named is HeLa. The series can be described thus: Photocytotoxicity against human HeLa cells assessed as cell shrinkage at 5 uM preincubated for 1 hr followed by blue LED light irradiation for 10 to 30 mins and measured after 2.5 hrs by holotomographic method. In kind it is functional, cell-based.
The nature of series [8]: Drug uptake in human HeLa cell mitochondria at 10 uM after 1 hr by mitotracker red staining based confocal laser scanning microscopic method. It counts as ADME.
A short description of series [9]: Induction of singlet oxygen production assessed as photodegradation of DPBF by measuring quantum yield after irradiation with 356 nanometer light by UV-Visible spectroscopic analysis. It counts as functional.
Series [10] in a line: Dark toxicity in human A549 cells assessed as reduction in cell viability up to 10 uM measured after 24 hrs by MTT assay. In kind it is cell-based. The conditions noted are these: a549, 24 h.
Series [11] is described as follows: Dark toxicity in human HeLa cells assessed as morphological changes at 10 uM measured after 14 hrs by propidium iodide staining based fluorescence microscopic method. In kind it is cell-based.
The test system of series [12] is HeLa. The series can be described thus: Photocytotoxicity against human HeLa cells assessed as cytoplasmic shrinkage at 10 uM preincubated for 1 hr followed by 488 nanometer laser light irradiation and measured after 8 to 10 mins by confocal microscopic method. In kind it is functional, cell-based.
For series [13], the system named is HeLa. The series can be described thus: Photocytotoxicity against human HeLa cells assessed as induction of mitochondrial damage by measuring mitochondrial swelling at 10 uM preincubated for 1 hr followed by 488 nanometer laser light irradiation up to 6 mins by mitotracker red staining based confocal laser scanning microscopic method. In kind it is functional, cell-based.

Series [14] deals with HeLa. Kind of series: Photocytotoxicity against human HeLa cells assessed as membrane protrusion at 5 uM preincubated for 1 hr followed by blue LED light irradiation for 10 to 30 mins and measured after 2.5 hrs by holotomographic method. In kind it is functional, cell-based.
Series [15] relates to HeLa. Kind of series: Photocytotoxicity against human HeLa cells assessed as increase in cleaved caspase-9 protein expression preincubated for 1 hr followed by blue LED light irradiation for 10 mins and measured after 18 hrs by Western blot analysis. In kind it is functional, cell-based.
The subject of series [16] is HeLa. Kind of series: Photocytotoxicity against human HeLa cells assessed as plasma membrane blebbing at 20 uM preincubated for 1 hr followed by blue LED light irradiation for 10 mins and measured after 2.5 hrs by holotomographic method. It counts as functional, cell-based.

The source made the active and inactive calls. The calls are words filed in the database; no cut-off is given here.

Regarding `Cc1cccn2c1cc1c3ccccc3nc(-c3ccco3)c12`, the Activity entry in the series on HeLa [1] is “Dose-dependent effect”; in the series on DNA [2] it was “Dose-dependent effect”; in [9], 0.33; in [10], “Non-Toxic”; in series [11], “Non-Toxic”; in the series with HeLa [15], “Dose-dependent effect”. Moreover, the outcome in the series on MCF7, in the series on HeLa [4], with HeLa [5], with HeLa [7], in the series with HeLa [12] and with HeLa [13] was Active. The outcome with HeLa [14] and with HeLa [16] was Active. Besides, the Drug uptake result in [3] and in series [8] was “Active” each time. For the same compound, in the series with DNA [6], the fold change (FC) is < 4.
